Measurements: US20200333324A1, “METHOD OF PREDICTING CLINICAL OUTCOME OF ANTICANCER AGENTS” (MITRA RXDX, INC., priority 2017, published 2020)

Experiments:
Assay type in all cases: cell-based, human
HNSCC tumor tissue [1] = test: IHC for CD8, PD-L1, PD-1 and FOXP3 positive cells in tumor microenvironment platform; settings: T3; for number of PD-1^+ cells in the tumor microbed: vs IgG control
Procedure: The effect of Pembrolizumab and Nivolumab on CD8^+ T cell tumor infiltration was then evaluated. Tumor sections from the same patient cultured for 72 hours in the tumor microenvironment platform were treated with Pembrolizumab, Nivolumab, or IgG as control and stained for H&E, Ki67, Caspase 3, and CD8 at day 3 in culture (T3). Baseline staining was determined at TO. […] To further elucidate the effects of the anti-PD-1 antibodies, FACS analysis was performed on tumor tissue from patient 2941 and patient 2942 treated with either Pembrolizumab, Nivolumab, or IgG control. […] By contrast, there was no effect of either Pembrolizumab or Nivolumab on CD8^+ T cell infiltration for patient 2942, further highlighting the differential response between individuals to PD-1 blockade. CD8^+ T cell infiltration was evaluated in the tumor microenvironment platform with tumor tissue from the same patient, and comparisons for control vs Nivo, control vs Pembro, Nivo vs Pembro, and control vs Nivo vs Pembro for multiple patients are shown in FIG. 6 (each line represents results from the tumor microenvironment platform cultured with tumor tissue from a single individual).
The effect of Pembrolizumab and Nivolumab on the expression of immunoregulatory molecules, including PD-1 and FOXP3, in the tumor microenvironment platform tumor microbed was evaluated. Tumor sections from the same patient cultured for 3 days (72 hours) in the tumor microenvironment platform were treated with Pembrolizumab, Nivolumab, or IgG control and stained for CD8, FOXP3, and PD-1 at day 3 in culture (T3). Baseline staining was determined at TO. Results are shown in FIG. 7A for tumor sections from a predicted responder to Pembrolizumab or Nivolumab and FIG. 7B for a predicted non-responder to Pembrolizumab or Nivolumab, as characterized by M-score. There was in increase in the number of PD-1^+ cells in the tumor microbed for both Pembrolizumab and Nivolumab, which was to a greater degree in the case of Nivolumab, when compared to IgG control in the responder (FIG. 7A). There was no change for either Pembrolizumab and Nivolumab in the non-responder (FIG. 7B). The numbers of PD-L1^+ tumor cells, PD-1^+ T cells, FOXP3^+ T-regulatory cells, and CD8^+ T cells were evaluated using the tumor microenvironment platform with tumor tissue from the same patient in Nivolumab, Pembrolizumab, and control conditions, and are summarized in Table 3. Comparisons for control vs Nivo, control vs Pembro, Nivo vs Pembro, and control vs Nivo vs Pembro for multiple patients are shown in FIG. 8 (each line represents results from the tumor microenvironment platform cultured with tumor tissue from a single individual).

Tumor sections = test: FACS analysis for CD25, CD127 and FOXP3 expression, tumor sections
Procedure: The effect of treatment with Nivolumab and Pembrolizumab on CD25, CD127, and FOXP3 expression was then evaluated. Tumor sections or PBNCs from the same patient cultured for 3 days in the tumor microenvironment platform were treated with Pembrolizumab, Nivolumab, or IgG control for one day followed by FACS analysis for expression of CD25, CD127, and FOXP3.

HNSCC tumor tissue [2] = test: M-score clinical outcome predictor: tumor microenvironment platform assays (WST-1, LDH, ATP, glucose uptake, Caspase 3/8, Ki67, H&E) input into machine-trained algorithm; design: scale not given here
Description: Utilizing primary and late stage HNSCC patient samples (n=16) we interrogated phenotypic response to both Pembrolizumab (KEYTRUDA) and Nivolumab (OPDIVO), two FDA-approved PD-1 inhibitors, as single agents on the tumor microenvironment platform with tumor tissue from the same patient. To do this, we assayed tumor proliferation (Ki67) and apoptosis (active caspase-3), in addition to using a comprehensive panel of immunological assays to evaluate changes in the immune compartment (CD8, CD45, FOXP3, CXCR4, CD68, PDL1, PD1) and cytokine profile (IL6, IL8, IFN-g and IL12).

Pembrolizumab
# cells/field PD-1^+ (HNSCC tumor tissue [1]; Patient ID 2916, control 0): 0 cells/field | # cells/field PD-L1^+ (HNSCC tumor tissue [1]; Patient ID 2916, control 1): 2 cells/field | # cells/field FOXP3^+ (HNSCC tumor tissue [1]; Patient ID 2916, control 3): 2 cells/field | # cells/field CD8^+ (HNSCC tumor tissue [1]; Patient ID 2916, control 20): 18 cells/field | # cells/field PD-1^+ (HNSCC tumor tissue [1]; Patient ID 2918, control 2): 0 cells/field | # cells/field FOXP3^+ (HNSCC tumor tissue [1]; Patient ID 2918, control 3): 3 cells/field | # cells/field CD8^+ (HNSCC tumor tissue [1]; Patient ID 2918, control 10): 14 cells/field | # cells/field PD-L1^+ (HNSCC tumor tissue [1]; Patient ID 2918, control 10): 10 cells/field | # cells/field PD-1^+ (HNSCC tumor tissue [1]; Patient ID 2926, control 0): 0 cells/field | # cells/field PD-L1^+ (HNSCC tumor tissue [1]; Patient ID 2926, control 3): 1 cells/field | # cells/field FOXP3^+ (HNSCC tumor tissue [1]; Patient ID 2926, control 4): 10 cells/field | # cells/field CD8^+ (HNSCC tumor tissue [1]; Patient ID 2926, control 25): 5 cells/field | # cells/field PD-1^+ (HNSCC tumor tissue [1]; Patient ID 2928, control 0): 0 cells/field | # cells/field PD-L1^+ (HNSCC tumor tissue [1]; Patient ID 2928, control 0): 1 cells/field | # cells/field CD8^+ (HNSCC tumor tissue [1]; Patient ID 2928, control 4): 1 cells/field | # cells/field FOXP3^+ (HNSCC tumor tissue [1]; Patient ID 2928, control 4): 1 cells/field | # cells/field CD8^+ (HNSCC tumor tissue [1]; Patient ID 2939, control 0): 5 cells/field | # cells/field PD-1^+ (HNSCC tumor tissue [1]; Patient ID 2939, control 0): 0 cells/field | # cells/field FOXP3^+ (HNSCC tumor tissue [1]; Patient ID 2939, control 1): 1 cells/field | # cells/field PD-L1^+ (HNSCC tumor tissue [1]; Patient ID 2939, control 10): 15 cells/field | # cells/field PD-1^+ (HNSCC tumor tissue [1]; Patient ID 2941, control 0): 1 cells/field | # cells/field FOXP3^+ (HNSCC tumor tissue [1]; Patient ID 2941, control 3): 4 cells/field | # cells/field PD-L1^+ (HNSCC tumor tissue [1]; Patient ID 2941, control 3): 6 cells/field | # cells/field CD8^+ (HNSCC tumor tissue [1]; Patient ID 2941, control 5): 7 cells/field | # cells/field PD-1^+ (HNSCC tumor tissue [1]; Patient ID 2942, control 0): 0 cells/field | # cells/field PD-L1^+ (HNSCC tumor tissue [1]; Patient ID 2942, control 0): 0 cells/field | # cells/field CD8^+ (HNSCC tumor tissue [1]; Patient ID 2942, control 3): 2 cells/field | # cells/field FOXP3^+ (HNSCC tumor tissue [1]; Patient ID 2942, control 3): 2 cells/field | # cells/field FOXP3^+ (HNSCC tumor tissue [1]; Patient ID 2948, control 1): 3 cells/field | # cells/field PD-1^+ (HNSCC tumor tissue [1]; Patient ID 2948, control 1): 0 cells/field | # cells/field PD-L1^+ (HNSCC tumor tissue [1]; Patient ID 2948, control 10): 1 cells/field | # cells/field CD8^+ (HNSCC tumor tissue [1]; Patient ID 2948, control 20): 25 cells/field | # cells/field PD-1^+ (HNSCC tumor tissue [1]; Patient ID 2949, control 1): 6 cells/field | # cells/field FOXP3^+ (HNSCC tumor tissue [1]; Patient ID 2949, control 5): 3 cells/field | # cells/field PD-L1^+ (HNSCC tumor tissue [1]; Patient ID 2949, control 20): 28 cells/field | # cells/field CD8^+ (HNSCC tumor tissue [1]; Patient ID 2949, control 50): 40 cells/field | # cells/field PD-1^+ (HNSCC tumor tissue [1]; Patient ID 2956, control 0): 0 cells/field | # cells/field CD8^+ (HNSCC tumor tissue [1]; Patient ID 2956, control 1): 1 cells/field | # cells/field PD-L1^+ (HNSCC tumor tissue [1]; Patient ID 2956, control 2): 0 cells/field | # cells/field FOXP3^+ (HNSCC tumor tissue [1]; Patient ID 2956, control 8): 1 cells/field | # cells/field PD-1^+ (HNSCC tumor tissue [1]; Patient ID 2963, control 0): 0 cells/field | # cells/field CD8^+ (HNSCC tumor tissue [1]; Patient ID 2963, control 6): 2 cells/field | # cells/field FOXP3^+ (HNSCC tumor tissue [1]; Patient ID 2963, control 10): 2 cells/field | # cells/field PD-L1^+ (HNSCC tumor tissue [1]; Patient ID 2963, control 12): 10 cells/field | # cells/field PD-1^+ (HNSCC tumor tissue [1]; Patient ID 2978, control 0): 0 cells/field | # cells/field FOXP3^+ (HNSCC tumor tissue [1]; Patient ID 2978, control 1): 2 cells/field | # cells/field PD-L1^+ (HNSCC tumor tissue [1]; Patient ID 2978, control 1): 1 cells/field | # cells/field CD8^+ (HNSCC tumor tissue [1]; Patient ID 2978, control 12): 22 cells/field | # cells/field PD-1^+ (HNSCC tumor tissue [1]; Patient ID 2979, control 0): 0 cells/field | # cells/field FOXP3^+ (HNSCC tumor tissue [1]; Patient ID 2979, control 2): 3 cells/field | # cells/field PD-L1^+ (HNSCC tumor tissue [1]; Patient ID 2979, control 5): 8 cells/field | # cells/field CD8^+ (HNSCC tumor tissue [1]; Patient ID 2979, control 25): 10 cells/field | # cells/field PD-1^+ (HNSCC tumor tissue [1]; Patient ID 2980, control 0): 0 cells/field | # cells/field FOXP3^+ (HNSCC tumor tissue [1]; Patient ID 2980, control 1): 2 cells/field | # cells/field PD-L1^+ (HNSCC tumor tissue [1]; Patient ID 2980, control 8): 2 cells/field | # cells/field CD8^+ (HNSCC tumor tissue [1]; Patient ID 2980, control 30): 8 cells/field | # cells/field FOXP3^+ (HNSCC tumor tissue [1]; Patient ID 2981, control 0): 1 cells/field | # cells/field PD-1^+ (HNSCC tumor tissue [1]; Patient ID 2981, control 0): 0 cells/field | # cells/field PD-L1^+ (HNSCC tumor tissue [1]; Patient ID 2981, control 0): 0 cells/field | # cells/field CD8^+ (HNSCC tumor tissue [1]; Patient ID 2981, control 1): 12 cells/field | number of PD-1^+ cells in the tumor microbed (HNSCC tumor tissue [1]; predicted non-responder): no change | number of PD-1^+ cells in the tumor microbed (HNSCC tumor tissue [1]; predicted responder, to a greater degree in the case of Nivolumab): increase | CD25^+/FOXP3^− Tumor (% total cells) (Tumor sections; Non-Responder, control 6.52): 5.03 % total cells | CD25^+/CD127^+ Tumor (% total cells) (Tumor sections; Non-Responder, control 19.6): 17.8 % total cells | CD25^−/CD127^− Tumor (% total cells) (Tumor sections; Non-Responder, control 22.1): 24.9 % total cells | CD25^−/FOXP3^− Tumor (% total cells) (Tumor sections; Non-Responder, control 23.6): 10.7 % total cells | CD25^+/CD127^− Tumor (% total cells) (Tumor sections; Non-Responder, control 25.4): 24.3 % total cells | CD25^−/CD127^+ Tumor (% total cells) (Tumor sections; Non-Responder, control 33.0): 32.9 % total cells | CD25^+/FOXP3^+ Tumor (% total cells) (Tumor sections; Non-Responder, control 34.4): 35.8 % total cells | CD25^− FOXP3^+ Tumor (% total cells) (Tumor sections; Non-Responder, control 35.5): 48.4 % total cells | CD25^−/CD127^− Tumor (% total cells) (Tumor sections; Responder, control 12.2): 18.4 % total cells | CD25^− FOXP3^+ Tumor (% total cells) (Tumor sections; Responder, control 18.9): 42.5 % total cells | CD25^−/FOXP3^− Tumor (% total cells) (Tumor sections; Responder, control 20.3): 6.67 % total cells | CD25^+/CD127^− Tumor (% total cells) (Tumor sections; Responder, control 23.0): 17.7 % total cells | CD25^−/CD127^+ Tumor (% total cells) (Tumor sections; Responder, control 24.3): 31.2 % total cells | CD25^+/FOXP3^− Tumor (% total cells) (Tumor sections; Responder, control 25.7): 5.83 % total cells | CD25^+/FOXP3^+ Tumor (% total cells) (Tumor sections; Responder, control 35.1): 45.0 % total cells | CD25^+/CD127^+ Tumor (% total cells) (Tumor sections; Responder, control 40.5): 32.6 % total cells | functional Treg cells (CD25, CD127, FOXP3 FACS) (Tumor sections; platform containing tumor tissue): patient sample-dependent functional Treg cell depression | M-score (HNSCC tumor tissue [2]; Patient ID 2918): 13 | M-score (HNSCC tumor tissue [2]; Patient ID 2928): 16 | M-score (HNSCC tumor tissue [2]; Patient ID 2941): 38 | M-score (HNSCC tumor tissue [2]; Patient ID 2948): 4 | M-score (HNSCC tumor tissue [2]; Patient ID 2949): 6 | M-score (HNSCC tumor tissue [2]; Patient ID 2956): 6 | M-score (HNSCC tumor tissue [2]; Patient ID 2978): 22 | M-score (HNSCC tumor tissue [2]; Patient ID 2981): 7
